We go through two compounds from patent publication US20230040386A1, “URSODEOXYCHOLIC ACID-CONTAINING AGENT FOR TREATING OR PREVENTING PRESBYOPIA” (priority 2018, published 2023).

Assay [1] deals with lens. Kind of assay: Pharmacological Test 3: lens elasticity after instillation of ursodeoxycholic acid (free form). The assay is classed as in vivo, C57BL/6J mice. The note with it: 2.5 μL/eye, 3 times per day, 12 to 15 days, vs vehicle control. The protocol: A vehicle comprising 0.1% (w/v) of ethyl pyruvate, 0.269% (w/v) of sodium dihydrogenphosphate monohydrate (NaH2PO4H2O), 0.433% (w/v) of disodium hydrogenphosphate (Na2HPO4), 0.2% (w/v) of hydroxypropyl methylcellulose, and 0.5% (w/v) of NaCl was prepared. Ursodeoxycholic acid was sonicated with the addition of the vehicle to prepare a 1.5% (w/v) suspension. The resulting 1.5% (w/v) suspension was diluted with the vehicle to prepare a 0.5% (w/v) suspension. Further, the resulting 0.5% (w/v) suspension was diluted with the vehicle to prepare a 0.15% (w/v) suspension. The total amount of each sample to be used in one day was prepared before use. EV06 was sonicated with the addition of the vehicle to prepare a 1.5% (w/v) solution. The total amount of the sample to be used in one day was prepared before use. 1) Each test sample (2.5 μL/eye) was instilled into the right eye of 8-month-old C57BL/6J mice with a Pipetman 3 times per day (around 9:00, 13:00 and 17:00) for 12 to 15 days. 2) After the final instillation, the mice were euthanized by carbon dioxide inhalation, and then the eyeballs were extracted and rinsed with Hank's balanced salt solution (HBSS). 3) The sclera near the optic nerve was cut with a razor, the lens was removed through the incision, and the removed lens was immersed in HBSS. 4) The lens was placed on a glass slide, and an all-in-one fluorescence microscope BZ-9000 (Keyence) was used to capture an image of the lens (Image a). 5) Next, one cover glass (Corning^(registered trade mark) 22×22 mm Square) was placed on the lens, and an image in which the thickness of the lens changed due to the weight was similarly captured (image b). 6) A change in the lens diameter was calculated from Equation 1 wherein the lens diameter of Image a is subtracted from the lens diameter of Image b, as described below. Then, the lens elasticity improvement of each sample group compared with the vehicle control group was calculated from Equation 2 described below. The mean of the vehicle control group was based on 5 eyes, the mean of each ursodeoxycholic acid sample group was based on 10 eyes, and the mean of the EV06 sample group was based on 10 eyes. Change in lens diameter=Lens diameter in Image b of each test sample−Lens diameter in Image a of each test sample (Equation 1) Lens elasticity improvement of each sample group=Mean change in lens diameter of each Test sample group−Mean change in lens diameter of Vehicle control group (Equation 2)

Assay [2] has as its system lens. Kind of assay: Pharmacological Test 4: lens elasticity, once-daily instillation of ursodeoxycholic acid for 2 weeks. The assay is classed as in vivo, C57BL/6J mice. The note with it: 14 days; for Lens elasticity improvement: vs vehicle control; for Lens elasticity improvement, in words: instilled once-daily, 1% and 3% ursodeoxycholic acid samples, 1.5% EV06 sample. How it is done: A vehicle comprising 0.1% (w/v) of ethyl pyruvate, 0.269% (w/v) of sodium dihydrogenphosphate monohydrate (NaH2PO4H2O), 0.433% (w/v) of disodium hydrogenphosphate (Na2HPO4), 0.2% (w/v) of hydroxypropyl methylcellulose, 0.5% (w/v) of NaCl was prepared. Ursodeoxycholic acid was sonicated with the addition of the vehicle to prepare a 3.0% (w/v) suspension. The resulting 3.0% (w/v) suspension was diluted with the vehicle to prepare a 1.0% (w/v) suspension. Further, the resulting 1.0% (w/v) suspension was diluted with the vehicle to prepare a 0.3% (w/v) suspension. The total amount of each sample to be used in one day was prepared before use. EV06 was sonicated with the addition of the vehicle to prepare a 1.5% (w/v) solution. The total amount of the sample to be used in one day was prepared before use. 1) Each test sample (2.5 μL/eye) was instilled into the right eye of 8-month-old C57BL/6J mice with a Pipetman once per day (QD; around 9:00), twice per day (BID; around 9:00 and 17:00), or 3 times per day (TID; around 9:00, 13:00 and 17:00) for 14 days. 2) After the final instillation, the mice were euthanized by carbon dioxide inhalation, and then the eyeballs were extracted and rinsed with Hank's balanced salt solution (HBSS). 3) The sclera near the optic nerve was cut with a razor, the lens was removed through the incision, and the removed lens was immersed in HBSS. 4) The lens was placed on a glass slide, and an all-in-one fluorescence microscope BZ-9000 ([…]) was used to capture an image of the lens (image a). 5) Next, one cover glass (Corning^(registered trade mark) 22×22 mm Square) was placed on the lens, and an image in which the thickness of the lens changed due to the weight was similarly captured (Image b). 6) A change in the lens diameter was calculated from Equation 1 wherein the lens diameter of Image a is subtracted from the lens diameter of Image b, as described below. Then, the lens elasticity improvement of each sample group compared with the vehicle control group was calculated from Equation 2 described below. The mean of the vehicle control group was based on 5 eyes, the mean of each ursodeoxycholic acid sample group was based on 10 eyes, and the mean of each EV06 sample group was based on 10 eyes. Change in lens diameter=Lens diameter in Image b of each test sample-Lens diameter in Image a of each test sample (Equation 1) Lens elasticity improvement of each sample group=Mean change in lens diameter of each Test sample group-Mean change in lens diameter of Vehicle control group (Equation 2)

As to `C[C@H](CCC(=O)O)[C@H]1CC[C@H]2[C@@H]3[C@@H](O)C[C@@H]4C[C@H](O)CC[C@]4(C)[C@H]3CC[C@]12C` [ursodeoxycholic acid, 3α,7β-Dihydroxy-5β-cholan-24-oic acid], the Lens elasticity improvement was found to be 31.8 μm in the assay on lens [1] (0.15% (w/v) sample); 39.4 μm in the assay on lens [1] (0.5% (w/v) sample); 59.9 μm in the assay on lens [1] (1.5% (w/v) sample); 2.8 μm in the assay on lens [2] (0.3% (w/v) sample, QD); 28.1 μm with lens [2] (1% (w/v) sample, QD); 30.4 μm in the assay with lens [2] (3% (w/v) sample, QD). Besides, in the assay on lens [2], the “Lens elasticity improvement, in words” value is “potent lens elasticity improvement”.

`C[N+](C)(C)CCOC(=O)CCCC[C@@H]1CCSS1` [EV06, lipoic acid choline ester]: the Lens elasticity improvement was 42.5 μm in the assay on lens [1] (1.5% (w/v) sample); 15.7 μm in the assay on lens [2] (1.5% (w/v) sample, BID); −3.6 μm in the assay with lens [2] (1.5% (w/v) sample, QD); 29.5 μm in the assay with lens [2] (1.5% (w/v) sample, TID). The “Lens elasticity improvement, in words” value in the assay with lens [2] is “no effect”.
